“Also recorded” adds a separate entry of the source.
What was measured:
[1] = test system: secretion of Substance P from DRG neurons; assay: Substance P secretion, single-cell immunoblot assay; assay type: cell-based, chick; settings: baclofen in addition to AP-YF peptide
Method: Secretion Assay: Secretion of substance P was analyzed using the single-cell immunoblot method adapted from Huang and Neher (Huang, L. Y., Neher, E. (1996) Neuron. 17, 135-45.). Briefly, polyvinylidene difluoride transfer membranes (Immobilon P brand from Millipore) were cut to […] and placed in a 6-well plate. Membranes were pre-wetted with methanol for 20 s, rinsed with distilled water and allowed to equilibrate in test solution for >1 hr. In parallel, DRG cells plated were incubated with media containing AP-YF or AP-Scr (1.4 μg/ml) for 1 hour. This media was removed, and replaced with 70 μl of test solution. The membranes were then placed on top of the cells, and allowed to incubate at 37° C. in a humidified CO2 incubator for 30 min. The membranes were then carefully removed from the cells and allowed to dry completely and fixed with powdered paraformaldehyde at 80° C. for 1 hr. Fixed membranes were rinsed in PBS (1 mM KH2PO4, 10 mM Na2HPO4, 137 mM NaCl, 2.7 mM KCl) containing 1% Triton X-100 (PBS-T) to remove excess paraformaldehyde, and blocked with PBS-T containing 3% fetal bovine serum (FBS) for 30 min at room temperature. The membranes were incubated with anti-substance P antibody (Santa Cruz) at 1:200 dilution in PBS-T with 1% FBS overnight in 37° C. incubator. The next day the membranes were developed with a peroxidase/diamninobenzidine (DAB) reaction using the ABC staining kit from Santa Cruz Biotechnology. Images were taken using a CCD camera, and analyzed using Photoshop and NIH image software. Data were plotted by assigning an upper and lower limit of gray values and plotting % of cells at a range within those limits. By plotting graphs as % of cells in a dynamic range, multiple experimental runs were pooled.

[2] = test system: cell-surface myc-L1-CAM on ND-7 cells; assay: L1-CAM diffusion behavior assay: movement of 9E10-coated beads bound to myc-L1-CAM (video microscopy, laser tweezers); assay type: cell-based, rat; settings: ND-7 cells expressing wild-type myc-L1-CAM; cytochalasin D 2 μM, nocadazole 1 μM, NGF 100 ng/mL 1 hour
Text: Video microscopy, laser tweezers, and data analysis: The 9E10-coated latex beads were then placed and held with an optical gradient laser trap on the surface of transfected cells at a distance of between 0.5 and 1 μm from the leading edge for 2 seconds. The laser trap consisted of a Titanium Sapphire (Coherent; model 890) solid state laser pumped by a 5 W frequency-doubled Neodymnium Vanadate laser (Verdi; Coherent) and tuned to 800 nm. This wavelength was previously determined to generate the fewest heating artifacts in live cells (Svoboda and Block. Biomol Struct 1994;23:-247-285 and Choquet et al. Cell 1997;88:39-48). Laser power at the output of the Titanium Sapphire laser was 40 mW, and prepared beads were placed and held on the cell surface for less than 3 sec to further reduce the possibility of heating artifacts. Laser light was introduced through the television port of the Axiovert microscope.
Video images of bead movement were collected using a newvicon camera (Dage MTI; VE-1000N) and background subtraction and contrast enhancement were carried using a Hamamatsu Argus 20 image processor. Raw data were recorded to sVHS video tape for subsequent analysis. Video recordings were subsequently digitized onto an Intel processor-based computer running the Isee imaging software (Isee Imaging) running under Red Hat Linux 7.1. Quantification of bead movement was carried out in Isee. Diffusional analysis was carried out using a custom spreadsheet in Excel (Microsoft). This spreadsheet carries out 4 operations: first, it scales the data from pixel measurements to nm using the appropriate scale factor (determined by the magnification used to observe bead movement); second, it subtracts the first point from all of the data, to set the origin at 0,0 (x,y coordinates); third, it rotates (in two dimensional space) the data around the origin so that the orientation of the cell is the same from trial to trial (here, the data was set so that the cells all face to the left); and fourth, the spreadsheet calculates the mean square displacement (MSD) data which are used to calculate diffusion coefficients and bead velocity. Individual traces were scored blind for classes of behavior. Statistical analysis of percentages of trials was carried out using chi-squared analysis or a Fisher's exact probability test.
MSD values were calculated as previously described (see Qian et al, 1991; Biophysical Journal 60 p910). For these calculations, the squared displacement (a^2+b^2; where a=xn+t−xn, b=a=yn+t−yn for any two points separated by time t) of the bead was calculated between two points in the data set. The mean of the squared displacements was calculated for each time interval t=1 to m, where m is the time interval that equals 10% of the length of the data set. The mean displacement was plotted with respect to time giving a curve with a linear or quadratic shape, depending on the behavior of the bead. Diffusion rates and velocity were calculated by fitting the curve with the equation MSD=4Dt+v^2t^2, where D is the diffusion coefficient, v is the velocity and t is time. D and v were calculated for each bead independently and presented as averages or as individual values, as described in each case.
Cell culture and transfection: ND-7 cells (rat neuroblastoma/DRG hybrid cells) were plated and transfected with pMyc-L1-CAM, pMyc-L1-CAM-YF, pMyc-L1-CAM-YH, or pMyc-L1-CAM-STOP expression constructs as described in Example 3, supra.
In some instances, ND-7 cells transfected with pMyc-L1-CAM were treated with the cytoskeletal inhibitor cytochalasin D (2 μM; Sigma) or nocadazole (1 μM; Sigma). For these experiments treatment with DMSO (0.01%) vehicle alone served as the negative control.
In some instances, ND-7 cells transfected with pMyc-L1-CAM were treated with neural growth factor (NGF) to stimulate phosphorylation of tyrosine 1229 (Y1229) of the L1-CAM cytoplasmic domain, and thereby inhibit ankyrin binding. […]

Cav2.2 channels = assay: Calcium channel distribution by confocal indirect immunofluorescence in DRG neurons; assay type: cell-based, chicken; settings: DRG neurons; application of the transmitter
Method: Antibodies: Primary antibody: rabbit anti-pan α1 binds Ca channel (1:200 dilution, [1.5 μg/ml) [Alomone Labs; Jerusalem, Israel]. Secondary antibodies: (1:200 dilution, 10 μg/ml): tetramenthylrhodamine conjugated goat anti-rabbit IgG (H+L) [Molecular Probes; Eugene, OR]
Dorsal root ganglia were dissected from 11 to 12 day old embryos, incubated for 30 min in saline containing nominal Ca 2^+ and Mg 2^+, and 0.05% collagenase (type A, Boehringer Mannheim). Ganglia were dissociated mechanically into single cells by trituration in culture medium containing Dulbecco's modified Eagle's medium supplemented with 10% horse serum, 5% chicken embryo extract, penicillin, streptomycin, glutamine, and nerve growth factor. Cells were plated at a density of ˜50,000 cells/collagen-coated 35 mm tissue culture dish and studied between 1 and 3 days in vitro.
Immunohistochemistry: Cultures grown on poly-L-lysine cover glass slips were exposed to saline or 100 mM NE (norepinephrine), fixed and permeabilized in methanol at −20° C. for 15-minutes or 20 second (for residual experiment) followed by 3×5-min washes in PHEM Buffer [60 mM PIPES, 25 mM HEPES, 10 mM EGTA, 2 mM MgCl2, pH 6.9]. Cells were alternatively fixed with 4% paraformaldehyde in PHEM buffer, pH 6.9 for 20-min, washed 3×3-min with PHEM buffer and permeabilization with 0.1% Triton X-100/PHEM buffer for 3-min. Blocking was performed using 5% BSA in PHEM Buffer for 1-h at 4 C. Following overnight incubation with primary antibody in 1% BSA and 1% normal goat sera in PHEM Buffer at 4 C. After washes with PHEM Buffer, cover slips were incubated with fluorophore-conjugated secondary antibodies in 1% BSA PHEM Buffer for 1.5 hours at room temperature in the dark. […]
Images of fixed cells were obtained with a pinhole setting of 0.95 using a UV 100× 1.4NA oil Leica objective lens and an optical zoom between 1.4 and 2× at slow acquisition speed with 4× frame averaging accumulation. The number of sections was calculated by the Leica TCS software based on acquisition of sections at 240 nm intervals in the Z-plane. […]

[3] = target: T1, L1-CAM-ankyrin interactions (Homo sapiens, UniProt Q01484); assay: Ankyrin recruitment assay: ankyrinB co-localization with L1-CAM at the membrane of transfected 293 cells; assay type: cell-based; settings: 50 ng/mL EGF or 100 ng/mL NGF for 1 hour
T1 construct: expressed in transfected cells; host or cells: human kidney 293 cells
T1 sequence (Q01484 whole entry): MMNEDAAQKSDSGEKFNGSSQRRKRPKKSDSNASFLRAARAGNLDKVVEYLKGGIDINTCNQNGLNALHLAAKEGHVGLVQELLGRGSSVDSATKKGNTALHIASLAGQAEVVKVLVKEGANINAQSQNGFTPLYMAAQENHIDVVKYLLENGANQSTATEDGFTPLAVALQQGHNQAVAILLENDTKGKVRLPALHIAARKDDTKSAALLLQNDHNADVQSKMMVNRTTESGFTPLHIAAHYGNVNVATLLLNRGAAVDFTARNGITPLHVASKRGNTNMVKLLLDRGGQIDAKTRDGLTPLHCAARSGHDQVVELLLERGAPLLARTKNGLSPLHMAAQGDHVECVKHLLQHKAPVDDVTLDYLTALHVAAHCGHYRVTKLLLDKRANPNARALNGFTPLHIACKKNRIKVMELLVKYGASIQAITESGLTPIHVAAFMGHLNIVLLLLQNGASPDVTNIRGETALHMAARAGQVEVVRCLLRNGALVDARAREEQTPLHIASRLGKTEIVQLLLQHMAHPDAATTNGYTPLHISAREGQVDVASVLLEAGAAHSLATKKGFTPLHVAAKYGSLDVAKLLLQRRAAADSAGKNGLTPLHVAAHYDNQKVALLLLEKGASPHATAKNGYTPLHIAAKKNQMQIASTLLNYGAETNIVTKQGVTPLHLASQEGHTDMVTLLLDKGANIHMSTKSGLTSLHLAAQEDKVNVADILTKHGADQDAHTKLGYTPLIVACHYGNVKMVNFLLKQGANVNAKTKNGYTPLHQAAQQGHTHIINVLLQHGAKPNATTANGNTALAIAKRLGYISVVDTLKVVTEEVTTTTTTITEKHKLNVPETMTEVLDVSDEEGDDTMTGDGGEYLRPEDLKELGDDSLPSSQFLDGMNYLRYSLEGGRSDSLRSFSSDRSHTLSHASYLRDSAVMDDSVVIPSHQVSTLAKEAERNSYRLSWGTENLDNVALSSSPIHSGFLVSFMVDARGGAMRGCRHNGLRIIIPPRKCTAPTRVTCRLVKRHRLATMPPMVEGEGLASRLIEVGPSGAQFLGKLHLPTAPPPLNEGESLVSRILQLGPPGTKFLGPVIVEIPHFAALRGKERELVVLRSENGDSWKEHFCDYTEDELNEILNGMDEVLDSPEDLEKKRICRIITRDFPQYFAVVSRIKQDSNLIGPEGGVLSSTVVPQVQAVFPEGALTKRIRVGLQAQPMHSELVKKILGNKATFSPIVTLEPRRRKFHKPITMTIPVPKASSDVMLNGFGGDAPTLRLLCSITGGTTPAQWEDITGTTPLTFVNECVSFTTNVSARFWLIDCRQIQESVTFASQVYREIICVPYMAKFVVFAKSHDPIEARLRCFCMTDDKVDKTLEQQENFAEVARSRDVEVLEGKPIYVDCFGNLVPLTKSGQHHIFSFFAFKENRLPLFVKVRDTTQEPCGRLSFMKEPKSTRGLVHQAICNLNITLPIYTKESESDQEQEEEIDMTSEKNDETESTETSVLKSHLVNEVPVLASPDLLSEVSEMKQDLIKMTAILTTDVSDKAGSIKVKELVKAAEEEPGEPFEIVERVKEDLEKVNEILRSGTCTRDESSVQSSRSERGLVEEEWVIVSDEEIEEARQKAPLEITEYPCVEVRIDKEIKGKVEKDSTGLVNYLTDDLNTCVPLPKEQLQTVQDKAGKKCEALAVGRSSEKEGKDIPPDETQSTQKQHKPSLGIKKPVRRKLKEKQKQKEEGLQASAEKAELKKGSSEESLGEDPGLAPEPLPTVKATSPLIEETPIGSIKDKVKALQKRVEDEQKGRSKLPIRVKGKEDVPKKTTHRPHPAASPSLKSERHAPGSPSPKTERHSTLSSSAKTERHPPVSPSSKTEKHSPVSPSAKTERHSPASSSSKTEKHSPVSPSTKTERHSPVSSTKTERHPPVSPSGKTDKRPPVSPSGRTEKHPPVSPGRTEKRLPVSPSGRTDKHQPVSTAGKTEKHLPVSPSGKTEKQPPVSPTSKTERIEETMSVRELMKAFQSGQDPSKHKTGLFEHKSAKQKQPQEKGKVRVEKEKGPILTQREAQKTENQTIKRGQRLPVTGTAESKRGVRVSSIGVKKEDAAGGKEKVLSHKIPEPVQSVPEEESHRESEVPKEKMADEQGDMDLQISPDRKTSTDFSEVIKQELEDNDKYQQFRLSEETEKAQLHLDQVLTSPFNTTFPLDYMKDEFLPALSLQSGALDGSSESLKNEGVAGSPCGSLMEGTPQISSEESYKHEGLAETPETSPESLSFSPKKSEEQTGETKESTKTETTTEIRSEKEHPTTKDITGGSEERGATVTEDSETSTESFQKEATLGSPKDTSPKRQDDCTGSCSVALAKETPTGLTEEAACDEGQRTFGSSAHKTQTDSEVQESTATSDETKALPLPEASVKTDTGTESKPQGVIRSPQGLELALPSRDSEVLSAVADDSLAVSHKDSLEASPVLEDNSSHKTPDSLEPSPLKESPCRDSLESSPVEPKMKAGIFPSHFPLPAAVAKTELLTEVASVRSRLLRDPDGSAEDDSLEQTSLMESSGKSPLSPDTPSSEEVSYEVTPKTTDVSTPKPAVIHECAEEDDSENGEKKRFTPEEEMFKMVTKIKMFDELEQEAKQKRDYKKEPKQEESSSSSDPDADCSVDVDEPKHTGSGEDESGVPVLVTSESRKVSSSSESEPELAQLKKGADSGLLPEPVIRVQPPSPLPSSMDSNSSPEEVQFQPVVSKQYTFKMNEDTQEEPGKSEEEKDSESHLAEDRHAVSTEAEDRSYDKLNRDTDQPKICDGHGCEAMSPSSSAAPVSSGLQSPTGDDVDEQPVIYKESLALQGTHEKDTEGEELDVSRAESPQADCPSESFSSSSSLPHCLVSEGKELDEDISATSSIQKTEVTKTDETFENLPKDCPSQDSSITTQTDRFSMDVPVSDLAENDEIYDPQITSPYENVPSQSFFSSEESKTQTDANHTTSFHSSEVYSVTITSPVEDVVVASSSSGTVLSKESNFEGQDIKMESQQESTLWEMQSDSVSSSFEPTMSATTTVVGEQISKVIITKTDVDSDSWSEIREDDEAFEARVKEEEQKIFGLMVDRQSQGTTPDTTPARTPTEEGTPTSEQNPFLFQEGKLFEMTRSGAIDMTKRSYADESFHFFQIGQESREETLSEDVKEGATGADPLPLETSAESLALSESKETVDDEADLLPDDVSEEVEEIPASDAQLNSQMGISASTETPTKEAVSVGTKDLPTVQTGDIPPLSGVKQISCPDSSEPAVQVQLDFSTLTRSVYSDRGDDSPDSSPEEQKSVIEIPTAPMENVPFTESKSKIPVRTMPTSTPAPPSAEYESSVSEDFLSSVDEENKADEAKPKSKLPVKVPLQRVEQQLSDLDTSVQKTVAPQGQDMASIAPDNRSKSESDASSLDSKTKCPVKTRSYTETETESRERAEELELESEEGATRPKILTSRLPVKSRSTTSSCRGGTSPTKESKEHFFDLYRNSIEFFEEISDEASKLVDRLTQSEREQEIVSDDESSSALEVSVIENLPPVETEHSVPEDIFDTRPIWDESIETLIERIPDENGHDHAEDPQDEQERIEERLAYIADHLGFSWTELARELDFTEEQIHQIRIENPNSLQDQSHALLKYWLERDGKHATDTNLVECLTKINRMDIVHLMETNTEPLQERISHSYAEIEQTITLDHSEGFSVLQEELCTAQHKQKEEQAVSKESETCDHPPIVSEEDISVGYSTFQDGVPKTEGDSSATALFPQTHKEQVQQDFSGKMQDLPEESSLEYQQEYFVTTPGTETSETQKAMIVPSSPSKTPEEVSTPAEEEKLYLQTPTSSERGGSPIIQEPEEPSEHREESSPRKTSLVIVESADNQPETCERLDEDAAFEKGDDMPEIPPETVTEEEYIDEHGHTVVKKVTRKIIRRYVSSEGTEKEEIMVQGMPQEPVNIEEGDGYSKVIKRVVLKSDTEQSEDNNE
Method: Cell culture aid transfection: Human kidney 293 cells were cultured in DMEM medium (Gibco) supplemented with penicillin, streptomycin, L-glutamine, and 10% fetal bovine serum (Hyclone). The pMyc-L1-CAM or pL1-CAM-GFP expression constructs were transfected into cultured human kidney 293 cells using Lipofectamine plus (Invitrogen) according to manufacturer instructions. Cells were cultured for 24-48 hours and then used, or cultured continuously in the presence of 0.5 μg.mL G418 (Gibco) to select for stably transfected cells lines, to generate stable pooled lines of L1-CAM-expressing cells.
In some instances, transfected 293 cells were treated with neural growth factor (NGF) or epidermal growth factor (EGF) to stimulate phosphorylation of tyrosine 1229 (Y1229) of the L1-CAM cytoplasmic domain, and thereby inhibit ankyrin binding. In these cases, cells were treated with 50 ng/mL EGF (Gibco) or 100 ng/mL NGF (Gibco) for 1 hour prior to the assay. […]
Ankyrin and L1-CAM were detected by indirect immunofluorescence in double-labeled confocal sections through cell aggregates to permit the visualization of L1 and ankyrinB at the cell membrane. Expression of myc-L1-CAM was detected using a polyclonal anti-L1-CAM rabbit antibody. […] Ankyrin was detected using a monoclonal anti-ankyrinB mouse antibody (BD PharMingen). […]
Quantification of ankyrin immunolocalization: Confocal micrographs were then used to quantify the degree of ankyrin localization to the cell membrane of myc-L1-CAM expressing cells. Images were analyzed using ImageJ (NIH) under Macintosh OSX. The method for quantifying ankyrinB localization to the membrane uses densitometry of a line scan perpendicular to and crossing a cell-cell junction. […]
The densitometry intensity profile of the scanned line was used to determine a minimum ankyrinB signal for comparison to the value of the ankyrinB signal at the point where the maximum signal in the L1-CAM channel occurs. […] Minima were determined from the regions of the line overlapping the cytoplasm of either of the two cells. […]

[4] = test system: cell-surface myc-L1-CAM on ND-7 cells; assay: Cytoskeleton attachment assay: resistance of 9E10 bead-myc-L1-CAM complexes to lateral displacement by laser trap; assay type: cell-based, rat; settings: 2 μM cytochalasin D; ND-7 cells expressing myc-L1-CAM
Method: Cell culture and transfection: ND-7 cells (rat neuroblastoma/DRG hybrid cells) were cultured as described in Example 2. 24 hours prior to transfection, cultured cells were plated on coverslips coated with poly-D-lysine and laminin sealed to the bottom of 35 mm culture dishes (Mattek Corp.). Plated cells were transfected with the pL1-CAM or pMyc-L1-CAM expression constructs using Lipofectamine plus (Invitrogen) according to manufacturer's instructions. Transfected cells were cultured for 24-36 hours, and then used for live microscopy. For laser trap and video microscopy, the medium was replaced with phenol red-free serum-free L15 medium (air buffered) with 20 mM HEPES, 0.1% BSA, 0.5% ovalbumin. Cells transfected with the bicistronic expression constructs express a single mRNA encoding both the myc-L1-CAM proteins and EGFP, such that transfected cells were identified by EGFP fluorescence. […]
Video microscopy, laser tweezers, and data analysis: The 9E10-coated latex beads were then placed and held with an optical gradient laser trap on the surface of transfected cells at a distance of between 0.5 and 1 μm from the leading edge for 2 seconds. […] This wavelength was previously determined to generate the fewest heating artifacts in live cells (Svoboda and Block. Biomol Struct 1994;23:-247-285 and Choquet et al. Cell 1997;88:39-48). […]

**Q.** How did the “DRG neurons secreting low levels of Substance P” value [1] turn out when NCC(CC(=O)O)c1ccc(Cl)cc1 (racemic) [Baclofen, 4-Amino-3-[4-chlorophenyl] butanoic acid] was run?
**A.** The value was 75%.

**Q.** Which results are given for COC(=O)Nc1nc2cc(C(=O)c3cccs3)ccc2[nH]1 [nocadazole]?
**A.** % of trials diffusing [2]: 25%; % of trials retrograde [2]: 43.75%; % of trials stationary [2]: 31.25%

**Q.** Which “punctate distribution of Cav2.2 channels in the membrane” value (Cav2.2 channels) does the source give for NC[C@H](O)c1ccc(O)c(O)c1 (racemic) [norepinephrine, Norepinephrine] here?
**A.** Its value is “rapidly (within 2s) reduced”.

**Q.** With EGF: epidermal growth factor (Gibco) as the molecule, how does the “ankyrin B colocalization with L1-CAM at the cell membrane” value [3] read?
**A.** Its value is “significant reduction; also recorded: inhibited ankyrin membrane localization”.

**Q.** Which “bead rigidity on the cell surface (resistance to lateral displacement)” value [4] does the source give for C=C1[C@@H](C)[C@H]2[C@H](Cc3ccccc3)NC(=O)[C@]23[C@H](OC(C)=O)/C=C/[C@@](C)(O)C(=O)[C@@H](C)C/C=C/[C@H]3[C@@H]1O [cytochalasin D] here?
**A.** Its value is “entirely abolished”.

**Q.** What about the “% of trials diffusing” value [2] of the same molecule?
**A.** Its value is 83.3%.

**Q.** And the “% of trials retrograde” value [2]?
**A.** Its value is 0%.

**Q.** And the “% of trials stationary” value [2]?
**A.** Its value is 16.7%.

From US7737250B2, “Peptides for treating axonal damage, inhibition of neurotransmitter release and pain transmission, and blocking calcium influx in neurons” (Mount Sinai School of Medicine of New York University, priority 2003, dated 2010)
